Assay results reported in US20220046923A1, “HERBICIDAL CINNOLINIUM COMPOUNDS” (SYNGENTA CROP PROTECTION AG, priority 2018, published 2022).

Legend:
Assay in all cases: Post-emergence efficacy, glasshouse spray test
Assay type in all cases: in vivo
[1] = test system: Amaranthus palmeri (AMAPA); settings: Amaranthus palmeri, post-emergence, 312 h, evaluated after 13 days, read-out: Control of weed species AMAPA after post-emergence application (100=total damage to plant; 0=no damage to plant); for pest or weed control at 1000 g/ha: application rate 1000 g/Ha
Summary of the method: (§1)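 Plants grown 14 days in glasshouse (24/16 °C day/night, 14 h light, 65% humidity), then sprayed post-emergence with formula (I) formulated in IF50 and diluted in 0.25% or 1% Empicol ESC70 + 1% ammonium sulphate. Damage scored visually 13 days after spraying (0 = none, 100 = total).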

[2] = test system: Chenopodium album (CHEAL); settings: Chenopodium album, post-emergence, 312 h, evaluated after 13 days, read-out: Control of weed species CHEAL after post-emergence application (100=total damage to plant; 0=no damage to plant); for pest or weed control at 1000 g/ha: application rate 1000 g/Ha
Summary of the method: as §1

[3] = test system: Digitaria sanguinalis (DIGSA); settings: Digitaria sanguinalis, post-emergence, 312 h, evaluated after 13 days, read-out: Control of weed species DIGSA after post-emergence application (100=total damage to plant; 0=no damage to plant); for pest or weed control at 1000 g/ha: application rate 1000 g/Ha
Summary of the method: as §1

[4] = test system: Echinochloa crus-galli (ECHCG); settings: Echinochloa crus-galli, post-emergence, 312 h, evaluated after 13 days, read-out: Control of weed species ECHCG after post-emergence application (100=total damage to plant; 0=no damage to plant); for pest or weed control at 1000 g/ha: application rate 1000 g/Ha
Summary of the method: as §1

Eleusine indica (ELEIN) = settings: Eleusine indica, post-emergence, 312 h, evaluated after 13 days, read-out: Control of weed species ELEIN after post-emergence application (100=total damage to plant; 0=no damage to plant); for pest or weed control at 1000 g/ha: application rate 1000 g/Ha
Summary of the method: as §1

[5] = test system: Euphorbia heterophylla (EPHHL); settings: Euphorbia heterophylla, post-emergence, 312 h, evaluated after 13 days, read-out: Control of weed species EPHHL after post-emergence application (100=total damage to plant; 0=no damage to plant); for pest or weed control at 1000 g/ha: application rate 1000 g/Ha
Summary of the method: as §1

[6] = test system: Ipomoea hederacea (IPOHE); settings: Ipomoea hederacea, post-emergence, 312 h, evaluated after 13 days, read-out: Control of weed species IPOHE after post-emergence application (100=total damage to plant; 0=no damage to plant); for pest or weed control at 1000 g/ha: application rate 1000 g/Ha
Summary of the method: as §1

Lolium perenne (LOLPE) = settings: Lolium perenne, post-emergence, 312 h, evaluated after 13 days, read-out: Control of weed species LOLPE after post-emergence application (100=total damage to plant; 0=no damage to plant); for pest or weed control at 1000 g/ha: application rate 1000 g/Ha
Summary of the method: as §1

Setaria faberi (SETFA) = settings: Setaria faberi, post-emergence, 312 h, evaluated after 13 days, read-out: Control of weed species SETFA after post-emergence application (100=total damage to plant; 0=no damage to plant); for pest or weed control at 1000 g/ha: application rate 1000 g/Ha
Summary of the method: as §1

Question: With `OCC[n+]1ccc2ccccc2n1` [Compound A119] as the compound, how does the pest or weed control at 1000 g/ha [1] read?
Answer: Its pest or weed control at 1000 g/ha is 90%.

Question: What about the pest or weed control at 1000 g/ha [2] of the same compound?
Answer: Its pest or weed control at 1000 g/ha is 90%.

Question: What about the pest or weed control at 1000 g/ha [3] of the same compound?
Answer: The pest or weed control at 1000 g/ha was 50%.

Question: And the pest or weed control at 1000 g/ha [4]?
Answer: The pest or weed control at 1000 g/ha was 20%.

Question: What about the pest or weed control at 1000 g/ha (Eleusine indica (ELEIN)) of the same compound?
Answer: Its pest or weed control at 1000 g/ha is 40%.

Question: What about the pest or weed control at 1000 g/ha [5] of the same compound?
Answer: Its pest or weed control at 1000 g/ha is 80%.

Question: What about the pest or weed control at 1000 g/ha [6] of the same compound?
Answer: Its pest or weed control at 1000 g/ha is 50%.

Question: And the pest or weed control at 1000 g/ha (Lolium perenne (LOLPE))?
Answer: Its pest or weed control at 1000 g/ha is 20%.

Question: What about the pest or weed control at 1000 g/ha (Setaria faberi (SETFA)) of the same compound?
Answer: The pest or weed control at 1000 g/ha was 50%.

Question: For `COC(=O)C(C)[n+]1ccc2ccccc2n1` (stereo not drawn) [Compound A120], which pest or weed control at 500 g/ha ([1]; application rate 500 g/Ha) is on record?
Answer: The pest or weed control at 500 g/ha was 100%.

Question: What about the pest or weed control at 500 g/ha ([2]; application rate 500 g/Ha) of the same compound?
Answer: The pest or weed control at 500 g/ha was 90%.

Question: What about the pest or weed control at 500 g/ha ([3]; application rate 500 g/Ha) of the same compound?
Answer: The pest or weed control at 500 g/ha was 50%.

Question: What about the pest or weed control at 500 g/ha ([4]; application rate 500 g/Ha) of the same compound?
Answer: Its pest or weed control at 500 g/ha is 30%.

Question: What about the pest or weed control at 500 g/ha (Eleusine indica (ELEIN); application rate 500 g/Ha) of the same compound?
Answer: The pest or weed control at 500 g/ha was 60%.

Question: What about the pest or weed control at 500 g/ha ([5]; application rate 500 g/Ha) of the same compound?
Answer: The pest or weed control at 500 g/ha was 60%.

Question: What about the pest or weed control at 500 g/ha ([6]; application rate 500 g/Ha) of the same compound?
Answer: Its pest or weed control at 500 g/ha is 20%.

Question: And the pest or weed control at 500 g/ha (Lolium perenne (LOLPE); application rate 500 g/Ha)?
Answer: The pest or weed control at 500 g/ha was 0%.

Question: And the pest or weed control at 500 g/ha (Setaria faberi (SETFA); application rate 500 g/Ha)?
Answer: Its pest or weed control at 500 g/ha is 50%.

Question: For `OCCC[n+]1ccc2ccccc2n1` [Compound A121], which pest or weed control at 1000 g/ha [1] is on record?
Answer: Its pest or weed control at 1000 g/ha is 30%.

Question: And the pest or weed control at 1000 g/ha [2]?
Answer: Its pest or weed control at 1000 g/ha is 60%.

Question: And the pest or weed control at 1000 g/ha [3]?
Answer: The pest or weed control at 1000 g/ha was 0%.

Question: And the pest or weed control at 1000 g/ha [4]?
Answer: Its pest or weed control at 1000 g/ha is 10%.

Question: What about the pest or weed control at 1000 g/ha (Eleusine indica (ELEIN)) of the same compound?
Answer: Its pest or weed control at 1000 g/ha is 0%.

Question: What about the pest or weed control at 1000 g/ha [5] of the same compound?
Answer: Its pest or weed control at 1000 g/ha is 30%.

Question: What about the pest or weed control at 1000 g/ha [6] of the same compound?
Answer: Its pest or weed control at 1000 g/ha is 20%.

Question: And the pest or weed control at 1000 g/ha (Lolium perenne (LOLPE))?
Answer: Its pest or weed control at 1000 g/ha is 10%.

Question: What about the pest or weed control at 1000 g/ha (Setaria faberi (SETFA)) of the same compound?
Answer: The pest or weed control at 1000 g/ha was 30%.
